Columns and labels:
Assay in all cases: cell-based
PTRGER4 (EP4) = PTRGER4 (EP4) (Homo sapiens, UniProt P35408);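 also: assay plate preincubated 15 min at 37 °C, after which PGE2 was added at 20 nM final and incubation continued 120 min at 37 °C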
Text: The assay is using the PathHunter™ HEK 293 PTGER2 and PTGER4 b-arrestin cell lines from DiscoverX. The system is based on the Enzyme Fragment Complementation Technology. Two complementing fragments of the b-galactosidase enzyme are expressed within stably transfected cells. The larger portion of b-gal, termed EA for Enzyme Acceptor, is fused to the C-terminus of b-arrestin 2. The smaller fragment, termed ProLink™ tag, is fused to PTGER2 (EP2) or PTRGER4 (EP4) at the C-terminus. Upon activation, b-arrestin is recruited which forces the interaction of ProLink and EA, allowing complementation of the two fragments of b-gal and the formation of a functional enzyme which is capable of hydrolysing the substrate and generating a chemiluminescent signal.
The HEK 293 PTGER4 b-arrestin cells (DiscoverX 93-030-4C1) are detached from culture dishes with a cell dissociation buffer (Invitrogen, 13151-014), and collected in growing medium (GM: DMEM+Glutamax-I (Invitrogen 32430)/10% FCS, 1% Penicilin/streptomycin). 5000 cells per well of a 384 well plate (white with white bottom Greiner 781080) are seeded in 20 ul per well of GM. Plate is incubated at 37° C., 5% CO2 for 24 hours.
Stock solutions of test compounds are made at a concentration of 10 mM in DMSO, and serially diluted in DMSO to concentrations required for inhibition dose response curves (tested concentration range 10 μM-2 nM or 1 μM-0.2 nM).
PGE2 (Cayman 14010, stock solution: 100 uM in DMSO) is used as agonist at 20 nM final concentration, corresponding to EC80.
Five microliters of diluted compounds are transferred into the assay plate. Plate is pre-incubated 15 minutes at 37° C. Then five microliters of PGE2 (final conc. 20 nM) are transferred into the assay plate. Plate is incubated 120 minutes at 37° C.
Twelve μl of reagent are transferred to the assay plate and incubate for 1 hour at room temperature in the dark. Luminescence counts are read on a BMG Fluostar Optima reader according to manufacturers instructions.
For each compound concentration calculate of the percentage of activity compared to DMSO control value as average±STDEV. (each concentration is measured in duplicate)
When compounds were measured multiple times, mean values are given.

PTGER2 (EP2) = PTGER2 (EP2) (Homo sapiens, UniProt P43116)
EP2 = EP2 (Homo sapiens, UniProt P43116);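 also: SF295 glioblastoma cells with endogenous EP2 only, PGE2-stimulated cAMP accumulation read by HTRF competitive immunoassay, 45 min pre-incubation then 30 min at room temperature, IBMX in buffer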
EP4 = EP4 (Homo sapiens, UniProt P35408);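 also: inhibition of PGE2-evoked (6 nM) cAMP accumulation in BT549 breast cancer cells endogenously expressing EP4, cAMP read by HTRF competitive immunoassay after 30 min at room temperature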
Chain of EP4 (P35408 whole entry): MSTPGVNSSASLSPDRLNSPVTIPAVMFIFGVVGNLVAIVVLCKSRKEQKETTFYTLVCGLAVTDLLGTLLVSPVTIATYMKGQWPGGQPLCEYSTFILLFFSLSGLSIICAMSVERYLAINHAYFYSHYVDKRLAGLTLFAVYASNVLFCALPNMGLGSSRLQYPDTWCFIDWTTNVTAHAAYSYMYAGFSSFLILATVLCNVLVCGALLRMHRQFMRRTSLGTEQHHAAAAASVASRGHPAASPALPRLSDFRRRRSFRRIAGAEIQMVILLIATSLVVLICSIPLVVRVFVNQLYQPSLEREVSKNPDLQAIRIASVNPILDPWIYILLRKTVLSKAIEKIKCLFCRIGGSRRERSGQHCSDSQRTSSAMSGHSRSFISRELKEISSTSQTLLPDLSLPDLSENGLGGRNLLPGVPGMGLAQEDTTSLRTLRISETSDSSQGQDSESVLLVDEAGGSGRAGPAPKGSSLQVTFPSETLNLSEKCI

Chain of EP2 (P43116 whole entry): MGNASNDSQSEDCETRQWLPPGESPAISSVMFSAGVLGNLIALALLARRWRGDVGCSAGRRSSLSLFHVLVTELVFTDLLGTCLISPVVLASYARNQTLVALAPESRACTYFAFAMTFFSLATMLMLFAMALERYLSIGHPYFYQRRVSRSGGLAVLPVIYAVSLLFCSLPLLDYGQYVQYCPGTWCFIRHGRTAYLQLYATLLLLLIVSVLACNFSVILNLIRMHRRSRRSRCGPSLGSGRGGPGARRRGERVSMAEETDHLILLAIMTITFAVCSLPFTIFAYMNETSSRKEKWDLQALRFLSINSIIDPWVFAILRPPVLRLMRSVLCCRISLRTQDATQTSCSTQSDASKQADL
Chain of PTGER2 (EP2) (P43116 whole entry): as above
Chain of PTRGER4 (EP4) (P35408 whole entry): as the sequence (P35408 whole entry) above

IC50 (PTRGER4 (EP4)) | IC50 (PTGER2 (EP2)) | IC50 (EP2) | IC50 (EP4) | Compound
56 nM | 368 nM | 198 nM | 42 nM | CCOc1cc(-c2cc(NCCc3ccc(Br)cc3)ncn2)ccc1-c1noc(=O)[nH]1 [Example 15, 3-(4-{6-[2-(4-Bromo-phenyl)-ethylamino]-pyrimidin-4-yl}-2-ethoxy-phenyl)-[1,2,4]oxadiazol-5(4H)-one]
2180 nM | 727 nM | 568 nM | 918 nM | CCOc1cc(-c2cc(NCCc3ccccc3)ncn2)sc1C(=O)O [Example 75, 3-Ethoxy-5-(6-phenethylamino-pyrimidin-4-yl)-thiophene-2-carboxylic acid]
550 nM | 438 nM | 79 nM | 112 nM | COc1cc(SC)ccc1CCNc1cc(-c2ccc(C(=O)O)c(SC)c2)ncn1 [Example 2, 4-{6-[2-(2-Methoxy-4-methylsulfanyl-phenyl)-ethylamino]-pyrimidin-4-yl}-2-methylsulfanyl-benzoic acid]
342 nM | 92 nM | 20 nM | 107 nM | O=C(O)c1ccc(-c2cc(NCCc3c(F)cc(Br)cc3F)ncn2)cc1OC(F)F [Example 41, 4-{6-[2-(4-Bromo-2,6-difluoro-phenyl)-ethylamino]-pyrimidin-4-yl}-2-difluoromethoxy-benzoic acid]
168 nM | 481 nM | 130 nM | 173 nM | CSc1cc(-c2cc(NCCc3ccc(C)c(C)c3)ncn2)ccc1C(=O)O [Example 18, 4-{6-[2-(3,4-Dimethyl-phenyl)-ethylamino]-pyrimidin-4-yl}-2-methylsulfanyl-benzoic acid]
27 nM | 29 nM | 32 nM | 19 nM | CCOc1cc(-c2cc(NCCc3ccc(Cl)cc3Cl)ncn2)sc1-c1noc(=O)[nH]1 [Example 123, 3-(5-{6-[2-(2,4-Dichloro-phenyl)-ethylamino]-pyrimidin-4-yl}-3-ethoxy-thiophen-2-yl)-[1,2,4]oxadiazol-5(4H)-one]
37 nM | 56 nM | 47 nM | 81 nM | CCc1cc(-c2cc(NCCc3c(F)cc(Br)cc3F)ncn2)sc1C(N)=O [Example 281, 5-{6-[2-(4-Bromo-2,6-difluoro-phenyl)-ethylamino]-pyrimidin-4-yl}-3-ethyl-thiophene-2-carboxylic acid amide]
56 nM | 45 nM | 364 nM | 211 nM | CCOc1cc(-c2cc(NCCc3c(F)cc(Br)cc3F)ncn2)ccc1-c1cc(O)no1 [Example 273, 5-(4-{6-[2-(4-Bromo-2,6-difluoro-phenyl)-ethylamino]-pyrimidin-4-yl}-2-ethoxy-phenyl)-isoxazol-3-ol]
100 nM | 85 nM | 70 nM | 53 nM | CCOc1cc(-c2cc(NCCc3cc(Br)ccc3OC)ncn2)sc1C(=O)O [Example 71, 5-{6-[2-(5-Bromo-2-methoxy-phenyl)-ethylamino]-pyrimidin-4-yl}-3-ethoxy-thiophene-2-carboxylic acid]
5 nM | 11 nM | 28 nM | 17 nM | CCOc1cc(-c2cc(NCCc3c(F)cc(Br)cc3OC)ncn2)sc1-c1noc(=O)[nH]1 [Example 87, 3-(5-{6-[2-(4-Bromo-2-fluoro-6-methoxy-phenyl)-ethylamino]-pyrimidin-4-yl}-3-ethoxy-thiophen-2yl)-[1,2,4]oxadiazol-5(4H)-one]
60 nM | 73 nM | 28 nM | 61 nM | CCOc1cc(-c2cc(NCCc3c(F)cc(Br)cc3F)ncn2)ccc1-c1nnn[nH]1 [Example 23, [2-(4-Bromo-2,6-difluoro-phenyl)-ethyl]-{6-[3-ethoxy-4-(1H-tetrazol-5yl)-phenyl]-pyrimidin-4-yl}-amine]
94 nM | 16 nM | 13 nM | 43 nM | CNc1cc(-c2cc(NCCc3c(F)cc(Br)cc3F)ncn2)ccc1C(=O)O [Example 231, 4-{6-[2-(4-Bromo-2,6-difluoro-phenyl)-ethylamino]-pyrimidin-4-yl}-2-methylamino-benzoic acid]
7 nM | 22 nM | 74 nM | 20 nM | CCOc1cc(-c2cc(NCCc3ccc(Br)cc3OC)ncn2)sc1-c1noc(=O)[nH]1 [Example 126, 3-(5-{6-[2-(4-Bromo-2-methoxy-phenyl)-ethylamino]-pyrimidin-4-yl}-3-ethoxy-thiophen-2yl)-[1,2,4]oxadiazol-5(4H)-one]
17 nM | 60 nM | 31 nM | 10 nM | CCOc1cc(-c2cc(NCCc3ccc(Br)cc3)ncn2)sc1C(=O)O [Example 54, 5-{6-[2-(4-Bromo-phenyl)-ethylamino]-pyrimidin-4-yl}-3-ethoxy-thiophene-2-carboxylic acid]
148 nM | 105 nM | 303 nM | 470 nM | O=C(O)c1cccc2[nH]c(-c3cc(NCCc4c(F)cc(Br)cc4F)ncn3)cc12 [Example 46, 2-{6-[2-(4-Bromo-2,6-difluoro-phenyl)-ethylamino]-pyrimidin-4-yl}-1H-indole-4-carboxylic acid]
216 nM | 130 nM | 260 nM | 200 nM | COc1cc(C(F)F)c(F)cc1CCNc1cc(-c2ccc(C(=O)O)c(SC)c2)ncn1 [Example 187, 4-{6-[2-(4-Difluoromethyl-5-fluoro-2-methoxy-phenyl)-ethylamino]-pyrimidin-4-yl}-2-methylsulfanyl-benzoic acid]
31 nM | 9 nM | 28 nM | 16 nM | CCOc1cc(-c2cc(NCCc3c(F)cc(Br)cc3F)nc(C)n2)sc1-c1noc(=O)[nH]1 [Example 156, 3-(5-{6-[2-(4-Bromo-2,6-difluoro-phenyl)-ethylamino]-2-methyl-pyrimidin-4-yl}-3-ethoxy-thiophen-2-yl)-[1,2,4]oxadiazol-5(4H)-one]
9 nM | 11 nM | 40 nM | 25 nM | CCOc1cc(-c2cc(NCCc3c(F)cc(Cl)cc3F)ncn2)sc1-c1noc(=O)[nH]1 [Example 105, 3-(5-{6-[2-(4-Chloro-2,6-difluoro-phenyl)-ethylamino]-pyrimidin-4-yl}-3-ethoxy-thiophen-2yl)-[1,2,4]oxadiazol-5(4H)-one]
130 nM | 34 nM | 123 nM | 247 nM | CCOc1cc(-c2cc(NCCc3c(F)cc(Br)cc3F)ncn2)sc1Cc1noc(=O)[nH]1 [Example 138, 3-(5-{6-[2-(4-Bromo-2,6-difluoro-phenyl)-ethylamino]-pyrimidin-4-yl}-3-ethoxy-thiophen-2-ylmethyl)-[1,2,4]oxadiazol-5(4H)-one]
311 nM | 226 nM | 635 nM | 299 nM | CCCOc1cc(-c2cc(NCCc3c(F)cc(Br)cc3F)ncn2)ccc1CC(=O)O [Example 248, (4-{6-[2-(4-Bromo-2,6-difluoro-phenyl)-ethylamino]-pyrimidin-4-yl}-2-propoxy-phenyl)-acetic acid]
91 nM | 34 nM | 17 nM | 122 nM | CCOc1ccccc1CCNc1cc(-c2cc(OCC)c(-c3noc(=O)[nH]3)s2)ncn1 [Example 102, 3-(3-Ethoxy-5-{6-[2-(2-ethoxy-phenyl)-ethylamino]-pyrimidin-4-yl}-thiophen-2-yl)-[1,2,4]oxadiazol-5(4H)-one]
42 nM | 64 nM | 150 nM | 89 nM | CCn1cc(-c2cc(NCCc3c(F)cc(Br)cc3F)ncn2)cc1-c1noc(=O)[nH]1 [Example 278]
108 nM | 324 nM | 176 nM | 79 nM | Cc1ccc(CCNc2cc(-c3cc(C(F)(F)F)c(C(=O)O)s3)ncn2)cc1 [Example 62, 5-[6-(2-p-Tolyl-ethylamino)-pyrimidin-4-yl]-3-trifluoromethyl-thiophene-2-carboxylic acid]
484 nM | 214 nM | 1910 nM | 959 nM | O=C(O)Cc1ccc(-c2cc(NCCc3c(F)cc(Br)cc3F)ncn2)cc1OC(F)F [Example 252, (4-{6-[2-(4-Bromo-2,6-difluoro-phenyl)-ethylamino]-pyrimidin-4-yl}-2-difluoromethoxy-phenyl)-acetic acid]
77 nM | 88 nM | 774 nM | 154 nM | COc1cc(-c2noc(=O)[nH]2)ccc1-c1cc(NCCc2c(F)cc(Br)cc2F)ncn1 [Example 291, 3-(4-{6-[2-(4-Bromo-2,6-difluoro-phenyl)-ethylamino]-pyrimidin-4-yl}-3-methoxy-phenyl)-[1,2,4]oxadiazol-5(4H)-one]
13 nM | 13 nM | 92 nM | 44 nM | O=c1[nH]c(-c2sc(-c3cc(NCCc4c(F)cc(Br)cc4F)ncn3)cc2C(F)(F)F)no1 [Example 133, 3-(5-{6-[2-(4-Bromo-2,6-difluoro-phenyl)-ethylamino]-pyrimidin-4-yl}-3-trifluoromethyl-thiophen-2-yl)-[1,2,4]oxadiazol-5(4H)-one]
5 nM | 28 nM | 113 nM | 15 nM | CCOc1cc(-c2cc(NCCc3ccc(Br)c(F)c3)ncn2)sc1-c1noc(=O)[nH]1 [Example 108, 3-(5-{6-[2-(4-Bromo-3-fluoro-phenyl)-ethylamino]-pyrimidin-4-yl}-3-ethoxy-thiophen-2-yl)-[1,2,4]oxadiazol-5(4H)-one]
126 nM | 106 nM | 148 nM | 170 nM | CCOc1cc(C(F)(F)F)ccc1CCNc1cc(-c2ccc(C(=O)O)c(OCC)c2)ncn1 [Example 211, 2-Ethoxy-4-{6-[2-(2-ethoxy-4-trifluoromethyl-phenyl)-ethylamino]-pyrimidin-4-yl}-benzoic acid]
